Laboratory results taken from paper PMC6408443, “Structural determinants of lipid specificity within Ups/PRELI lipid transfer proteins” (Nature Communications, 2019).
Numbering of substitutions follows the chain as printed.

Experiments:
Assay in all cases: liposome lipid transfer, NBD dequenching
Format in all cases: biochemical
[1] = target: T1, Ups1–Mdm35 (Saccharomyces cerevisiae, UniProt Q05776); settings: labelled compound, 12.5 µM donor and 50 µM acceptor liposomes, pH 7.4, 20 °C
T1 construct: N-terminally His-tagged Ups1 with Mdm35, E. coli S30 cell-free expression; heterodimer; with Mitochondrial distribution and morphology protein 35
T1 sequence (Q05776 1-175): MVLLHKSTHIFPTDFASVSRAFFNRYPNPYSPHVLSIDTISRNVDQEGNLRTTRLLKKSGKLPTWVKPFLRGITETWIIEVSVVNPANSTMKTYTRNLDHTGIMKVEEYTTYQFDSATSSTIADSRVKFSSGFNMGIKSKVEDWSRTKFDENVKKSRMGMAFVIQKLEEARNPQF
T1 sequence (O60200 1-86 partner): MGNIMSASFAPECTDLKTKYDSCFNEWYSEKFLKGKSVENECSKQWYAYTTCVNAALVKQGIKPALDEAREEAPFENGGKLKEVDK

[2] = target: T2, Ups2Δ174–Mdm35 (Saccharomyces cerevisiae, UniProt P35200); settings: labelled compound, 50 nM complex, 12.5 µM donor and 50 µM acceptor liposomes, pH 7.4, 25 °C
T2 construct: gene UPS2; N-His Ups2 truncated after W174, with Mdm35, E. coli Rosetta-gami2; with Mitochondrial distribution and morphology protein 35
T2 sequence (P35200 1-174): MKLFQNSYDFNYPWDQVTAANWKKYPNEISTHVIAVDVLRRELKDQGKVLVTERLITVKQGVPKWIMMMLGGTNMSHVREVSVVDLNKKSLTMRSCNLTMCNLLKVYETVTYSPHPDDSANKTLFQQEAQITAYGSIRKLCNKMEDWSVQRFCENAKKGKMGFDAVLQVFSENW
T2 sequence (O60200 1-86 partner): T1 sequence (O60200 1-86 partner)

[3] = target: T3, PRELID1–TRIAP1 (Homo sapiens, UniProt Q9Y255); settings: labelled compound, 12.5 µM donor and 50 µM acceptor liposomes, pH 7.4, 20 °C
T3 construct: N-His-tagged PRELID1 co-expressed with TRIAP1 from pETDuet-1 in E. coli; heterodimer
T3 sequence (Q9Y255 whole entry): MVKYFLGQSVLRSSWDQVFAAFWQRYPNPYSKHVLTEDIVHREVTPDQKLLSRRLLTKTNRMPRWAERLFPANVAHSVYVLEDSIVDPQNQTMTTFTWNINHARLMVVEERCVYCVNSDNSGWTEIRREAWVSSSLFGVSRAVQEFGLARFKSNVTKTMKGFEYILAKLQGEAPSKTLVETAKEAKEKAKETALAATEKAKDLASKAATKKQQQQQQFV
T3 sequence (O43715 whole entry partner): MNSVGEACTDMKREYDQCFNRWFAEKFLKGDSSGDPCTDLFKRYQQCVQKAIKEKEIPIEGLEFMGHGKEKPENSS

[4] = target: T4, Ups2 loop-swap variant (Saccharomyces cerevisiae, UniProt P35200); settings: labelled compound; 50 nM complex, 12.5 µM donor and 50 µM acceptor liposomes, pH 7.4, 25 °C
T4 construct: N-His Ups2Δ174 carrying the Ups1 Omega loop (residues 60-71), codon-optimised, with Mdm35, E. coli Rosetta-gami2; with Mitochondrial distribution and morphology protein 35
T4 sequence (P35200 1-174): T2 sequence (P35200 1-174)
T4 sequence (O60200 1-86 partner): T1 sequence (O60200 1-86 partner)

[5] = target: T5, PRELID1–TRIAP1 (Homo sapiens, UniProt Q9Y255, K58V); settings: labelled compound; 120 nM complex, 12.5 µM donor and 50 µM acceptor liposomes, pH 7.4, 20 °C
T5 construct: N-His-tagged PRELID1 co-expressed with TRIAP1 from pETDuet-1 in E. coli; heterodimer
T5 sequence (Q9Y255 whole entry K58V): as the sequence (Q9Y255 whole entry) above, with K58V counted along it
T5 sequence (O43715 whole entry partner): as the sequence (O43715 whole entry partner) above

[6] = target: T6, Ups1–Mdm35 (Saccharomyces cerevisiae, UniProt Q05776, K58V); settings: labelled compound; 50 nM complex, 12.5 µM donor and 50 µM acceptor liposomes, pH 7.4, 20 °C
T6 construct: N-terminally His-tagged Ups1 with Mdm35, E. coli S30 cell-free expression; heterodimer; with Mitochondrial distribution and morphology protein 35
T6 sequence (Q05776 1-175 K58V): T1 sequence (Q05776 1-175) with K58V
T6 sequence (O60200 1-86 partner): T1 sequence (O60200 1-86 partner)

[7] = target: T7, Ups1–Mdm35 (Saccharomyces cerevisiae, UniProt Q05776, E108D); settings: labelled compound; 50 nM complex, 12.5 µM donor and 50 µM acceptor liposomes, pH 7.4, 20 °C
T7 construct: N-terminally His-tagged Ups1 with Mdm35, E. coli S30 cell-free expression; heterodimer; with Mitochondrial distribution and morphology protein 35
T7 sequence (Q05776 1-175 E108D): T1 sequence (Q05776 1-175) with E108D
T7 sequence (O60200 1-86 partner): T1 sequence (O60200 1-86 partner)

[8] = target: T8, PRELID1–TRIAP1 (Homo sapiens, UniProt Q9Y255, K58T); settings: labelled compound; 120 nM complex, 12.5 µM donor and 50 µM acceptor liposomes, pH 7.4, 20 °C
T8 construct: N-His-tagged PRELID1 co-expressed with TRIAP1 from pETDuet-1 in E. coli; heterodimer
T8 sequence (Q9Y255 whole entry K58T): as the sequence (Q9Y255 whole entry) above, with K58T counted along it
T8 sequence (O43715 whole entry partner): as the sequence (O43715 whole entry partner) above

| Structure (SMILES) | liposome lipid transfer, NBD dequenching ([1]; 12.5 nM complex) | liposome lipid transfer, NBD dequenching ([2]; inefficient substrate) | liposome lipid transfer, NBD dequenching [3] | liposome lipid transfer, NBD dequenching [4] | liposome lipid transfer, NBD dequenching [5] | liposome lipid transfer, NBD dequenching ([1]; 50 nM complex, inefficient substrate) | liposome lipid transfer, NBD dequenching [6] | liposome lipid transfer, NBD dequenching [2] | liposome lipid transfer, NBD dequenching ([3]; 120 nM complex, low activity) | liposome lipid transfer, NBD dequenching [7] | liposome lipid transfer, NBD dequenching [8] |
| --- | --- | --- | --- | --- | --- | --- | --- | --- | --- | --- | --- |
| CCCCCCCC/C=C\CCCCCCCC(=O)OC[C@H](COP(=O)(O)O)OC(=O)CCCCCCCCCCCNc1ccc([N+](=O)[O-])c2nonc12 [NBD-PA] | PA transfer of wildtype (WT) and mutant Ups1–Mdm35 complexes in vitro | Ups2–Mdm35 complexes transferred PA only inefficiently when compared to PS | While efficiently mediating the transfer of PA, PRELID1 showed a low PS transfer activity | we observed efficient PA transport by the loop-swap variant of Ups2 |  |  |  |  |  |  |  |
| CCCCCCCC/C=C\CCCCCCCC(=O)OC[C@H](COP(=O)(O)OC[C@H](N)C(=O)O)OC(=O)CCCCCCCCCCCNc1ccc([N+](=O)[O-])c2nonc12 [NBD-PS] |  |  |  | its ability to transfer PS was significantly reduced | substitution of K58 by valine or threonine substantially increased the ability of PRELID1 | Ups1–Mdm35 complexes transferred PS only inefficiently when compared to PA | The mutations K58V or E108D in Ups1 increased PS transport | PS transfer by Ups2 and loop-swap variant | PRELID1 showed a low PS transfer activity, similar to Ups1 | The mutations K58V or E108D in Ups1 increased PS transport | substitution of K58 by valine or threonine substantially increased the ability of PRELID1 |
